Values quoted from earlier work in patent US11918665B2, “Method for dyeing keratinous material, comprising the use of an organosilicon compound, a colored effect pigment and a sealing reagent I” (Henkel AG & Co. KGaA, priority 2019, dated 2024).

Details: 25° C.

Compound | solubility in water | solubility in water (in words)
O=S(=O)([O-])c1ccc(N=Nc2c(O)ccc3ccccc23)cc1.[Na+] [Acid Orange 7, sodium salt of 4-[(2-hydroxy-1-naphthyl)azo]benzene sulphonate] | more than 7 g/L | 
Nc1cc(S(=O)(=O)[O-])cc2cc(S(=O)(=O)[O-])c(N=Nc3ccccc3)c(O)c12.[Na+].[Na+] [Acid Red 33, disodium salt of 5-amino-4-hydroxy-3-(phenylazo)-naphthalene-2,7-disulphonate] | 2500 µg/mL | 
O=C([O-])c1c(Cl)c(Cl)c(Cl)c(Cl)c1-c1c2c(Br)cc(=O)c(Br)c-2oc2c(Br)c(O)cc(Br)c12.O=C([O-])c1c(Cl)c(Cl)c(Cl)c(Cl)c1-c1c2c(Br)cc(=O)c(Br)c-2oc2c(Br)c(O)cc(Br)c12.[Na+].[Na+] [Acid Red 92, disodium salt of 3,4,5,6-tetrachloro-2-(1,4,5,8-tetrabromo-6-hydroxy-3-oxoxanthen-9-yl)benzoic acid] | greater than 10 g/L | 
O=C([O-])C1=NN(c2ccc(S(=O)(=O)[O-])cc2)C(=O)C1N=Nc1ccc(S(=O)(=O)[O-])cc1.[Na+].[Na+].[Na+] (stereo not shown) [Acid Yellow 23, trisodium salt of 4,5-dihydro-5-oxo-1-(4-sulfophenyl)-4-((4-sulfophenyl)azo)-1H-pyrazole-3-carboxylic acid] |  | highly soluble in water
